Measurements from US6465460B1, “Compositions and methods for prevention and treatment of protozoal disease” (New Ace Research Company, priority 1998, dated 2002).

What was measured:
[1] = Repeated daily IV administration of diclazuril in DMSO to the horse DEEP POWDER: plasma levels; format: in vivo; settings: horse 1160 lbs, 0.5 mg/lb (580 mg) in DMSO IV once a day for eight days, sampled 24 hours after each dose, read-out: final steady state plasma concentration of diclazuril
Protocol: The horse, DEEP POWDER, 1160 lbs., in Table 2 above was administered diclazuril at a dose of 0.5 mg/lb. (580 mg) in DMSO IV once a day for eight days. Plasma levels of diclazuril at 24 hours after each dose administration and just before the next day's dosing are represented by the solid circles [drawing 6]
in the above Table 2. Note bow the dose of […] yields a stepwise increasing plasma concentrations of diclazuril, yielding a final steady state plasma concentration of diclazuril of about 10,000 ng/ml.

[2] = listed by JANSEEN Research Foundation; cited from earlier work
pKa of diclazuril = format: physicochemical; settings: aqueous solution of the sodium salt of diclazuril; inferred from pH stability study of the sodium salt; read-out: pKa inferred from precipitation pH
Protocol: (§1) The manufacturer of diclazuril, JANSEEN Research Foundation, listed the pKa of diclazuril to be 5.92 in its physico-chemical characteristics of diclazuril. It can be expected that at pH's above the pKa of the compound (i.e. pH>6), aqueous solution of diclazuril would stay in solution. Preliminary studies were conducted to determine the pH at which sodium salt would precipitate.
(§2) Sodium salt of diclazuril was dissolved in water. […] The pH of the aqueous solution was 12.4. To this solution, 1N HCl was added dropwise while stirring and the pH at which the solution began to turn cloudy was recorded.

[3] = format: physicochemical
Protocol: Diclazuril has a very low solubility in water (<1×10^−7 at pH 6.5) and can in fact be considered as practically-insoluble in water. A presently preferred plasma drug concentration of about 8 μg/ml for about 25-30 days is needed for the effective treatment of equine protozoan myeloencephalitis (EPM). The oral bioavailability of diclazuril is very low. Thus, a parenteral formulation is desired.
as §2

in vivo = assay: in vivo; parameters: species or system horse
Protocol: OWENS, (about 1,000 lbs.) received 750 mg of diclazuril powder dissolved in 30 ml of DMSO, intravenously, twice on day one, at zero and zero plus one hours for a total dose of 1,500 mg. Blood samples were drawn at the indicated time points immediately before the next dosing and the solid circles [drawing 4] in FIG. 1 represent plasma concentrations of diclazuril after these administrations. Plasma concentrations of dicalzuril in ng/ml are represented on the vertical axis against time in days on the horizontal axis. […] Concentrations at 72 hr and 96 hr were not included in calculation following IV administration. Area Under the Curve (AUC from 0 to ∞): Intercept-Slope Method [formula] […] Cl=55.26 ml/min. […] ClH=QH. EH EH is lower than 0.3 so diclazuril is found to have low hepatic extraction ratio.

Babesia equi = settings: horses treated for piroplasmosis; cited from earlier work
[4] = pH stability of sodium salt of diclazuril (dropwise 1N HCl until cloudy); format: physicochemical
Protocol: as §1, §2
This will not cause a problem as there are many drugs on the market that are formulated at higher pHs for exactly the same reason.

Structure (SMILES): N#CC(c1ccc(Cl)cc1)c1c(Cl)cc(-n2ncc(=O)[nH]c2=O)cc1Cl (stereo not drawn) [diclazuril]
- concentration at 24 h [1]: ~10000 ng/mL
- pKa listed by manufacturer [2]: 5.92
- pKa (pKa of diclazuril): ~10.5
- solubility in water (in words) [3]: completely insoluble in water
- level of diclazuril in urine samples (in vivo): Not detectable
- EH (hepatic extraction ratio) (in vivo; horse): lower than 0.3
- AUC (in vivo; horse, iv): 452 µg·h/mL
- clearance (in vivo; horse, iv): 55.3 mL/min
- half-life (in vivo; horse, iv): ~48 h

Structure (SMILES): O=C(Nc1cccc(C2=NCCN2)c1)Nc1cccc(C2=NCCN2)c1 [imidocarb dipropionate]
- adverse side effects of treatment (Babesia equi): salivation, restlessness, colic and gastrointestinal tract hypermotility

Structure (SMILES): N#CC(c1ccc(Cl)cc1)c1c(Cl)cc(-n2ncc(=O)[n-]c2=O)cc1Cl.[Na+] (stereo not drawn) [sodium salt of diclazuril]
- pH at which the solution began to turn cloudy ([4]; 1N HCl added dropwise while stirring, preliminary study): 10.5
- pH of the aqueous solution ([4]; sodium salt dissolved in water): 12.4
